The test system of one series is SKINETHIC™ RHE model. In words: Tissue viability, MTT assay on 3D reconstructed human epidermis after topical application. Particulars: for Tissue viability / EC50: 24 hours; for Tissue viability: relative to untreated epidermis; for EC50 value / EC50: concentration reducing viability to 50% of control tissues; for EC50: probit-log regression. In kind it is cell-based. On the procedure: (§1) The assay takes place in two steps: • Step 1: EC50 concentration finding assay is performed with one representative sample. • Step 2: determination of EC50 concentration values and IL-1α levels performed with both GA.
(§2) Prior to GA application, tissue inserts are transferred in 12-well plates prefilled with fresh maintenance medium. 60 µl/cm^2 of each GA solution is applied on top of epidermidis. After application, tissues are incubated for 24 hours at 37°C (±1 °C) and 5% ([…]) CO2.
(§3) The tissue viability is measured with the MTT assay performed in 24 hours. The MTT assay is based on the reduction of 3-(4,5-Dimethylthiazol-2-yl)-2,5-Diphenyltetrazolium Bromide (MTT) into insoluble purple formazan crystals, by metabolically active cells in a mitochondria-dependant reaction catalysed by succinate dehydrogenase. The ability of cells to reduce MTT after exposure to GA, compared to the control (untreated epidermis), enables to deduce the relative toxicity of the applied GA. The optical density (OD) of formazan solution is proportional to the number of viable cells.
(§4) After incubation, tissues are rinsed with PBS and then transferred into 24-well plates pre-filled with MTT solution. After 120 minutes (±10 minutes) of incubation at 37°C (±1 °C), the tissues are transferred into 24-well plates containing DMSO for extraction of formazan. Then the plates are stored overnight at room temperature. At the end of the extraction period, 3 x 200 µl aliquots of formazan extracts are transferred into a 96-well flat bottom microtiter plate and the optical density is read at 570 nm in a microplate reader.
(§5) The optical densities of each replicate are corrected by substracting the mean OD value of blank measured in parallel. The mean from corrected OD values (ODcorr) as well as standard deviation are calculated in each experimental group.
(§6) From the mean ODcorr values, the relative tissue viability (% viab) is calculated as a percentage of the mean viability of the control (untreated epidermis): % viab (treated) = ((treated) ODcorr mean)/((Control ODcorr mean) × 100. [formula]
(§7) The graph represents the dose response curve of cells viability (% viab) versus the GA concentration (C). The EC50 value is calculated from the dose response curve, by using the probit-log regression model.
(Tetrazolium dyes change colour on reduction, which living cells bring about.)

The subject of another series is interleukin 1α (IL-1α). Briefly: Inflammatory response, IL-1α release assay (ELISA) on reconstructed human epidermis. The settings on record: IL-1α level normalized to tissue viability, 24 hours. In kind it is cell-based.
Excerpt: The 3D reconstructed human epidermis (RhE) used as test system in the study, is the SKINETHIC™ RHE model commercially available from the company EPISKIN SA. The SKINETHIC™ RHE model is obtained by tissue engineering from untransformed human keratinocytes previously obtained from human epidermis. The model is described in the OECD 439 guideline for in vitro skin irritation of chemical products.
The assay is based on topical application of the tested GA at different concentrations on reconstructed human epidermis (RHE SkinEthic™), followed by evaluation of: • Tissue viability, by MTT colorimetric test to determine the concentration of test product needed to produce the viability to 50% of control tissues (EC50). • SkinEthic™ RHE tissue inflammatory response, by interleukin 1α (IL-1α) release assay.
as §2
At the end of the assay after 24 hours incubation period, the conditioned media underneath tissues are collected, aliquoted and stored at -20°C until IL-1α assay.
IL-1α is quantified using an Elisa kit (Quantikine Human IL-1α DLA50) according to the manufacturer's instructions. The optical densities are read at 450 nm.
IL-1α levels (pg/ml) are interpolated from the standard curve built with IL-1α standard provided with the Elisa kit. The mean of IL-1α release concentrations is calculated in each experimental group. For the comparative analysis, the IL-1α levels were normalized in function of tissue viability (MMT test). The values R (IL-1α/Viab%) ×100) have been calculated at different concentrations with the two GA and collected in the following Table 18: Table 18: IL-1α ratios.
Background: ELISA stands for enzyme-linked immunosorbent assay.

A short description of series [1]: Tissue viability, MTT assay on 3D reconstructed human epidermis after topical application. It counts as cell-based. Particulars: human, 24 hours, relative to untreated epidermis. As to the method: as §1, §2, §3, §4, §5, §6, §7
A further series deals with skin. Briefly: Usage test, panel questionnaire on skin quality. It counts as in vivo, human. The settings on record: between the 7th and the 14th day. An excerpt: A panel of 60 women with mature skin ranging from normal to dry, were selected to apply to each half of the face, the two tested items: GA-METEX and GA-CONTROL. The panelists were asked about their feeling after 7 and 14 days of daily application. The questionnaire covered items: nourished skin, uniform skin, smooth skin, luminous skin, finer skin texture, firm skin.

In the case of `O=C(O)CO` [GA-CONTROL, Glycolic acid], the Tissue viability was 62.1% with SKINETHIC™ RHE model (GA concentration 1.27%), 31.2% in the series with SKINETHIC™ RHE model (GA concentration 1.69%), 10.5% in the series on SKINETHIC™ RHE model (GA concentration 2.25%) and 3.4% in the series on SKINETHIC™ RHE model (GA concentration 3%). In the series on SKINETHIC™ RHE model, this molecule returned an EC50 value of 1.42%. Further, in the series with SKINETHIC™ RHE model, the EC50 is on record as 1.42 % p/v. The “R (IL-1α/Viab%) ×100” value with interleukin 1α (IL-1α) (GA concentration 1.27%) turned out to be 15.09; with interleukin 1α (IL-1α) (GA concentration 1.69%), 35.33; with interleukin 1α (IL-1α) (GA concentration 2.25%), 75.07.
One may read the viability as the share of living cells, or the viability signal relative to a control. Read a high viability as less harm to the cells. `O=C(O)CO` [GA-METEX, Glycolic acid] returned a viability at 24 h, 1.27 % in series [1] (GA concentration 1.27%) of 74.9%. In series [1] (GA concentration 3%), this molecule displayed a viability at 24 h, 3 % of 3.5%. For the same molecule, the figures for the Tissue viability in the series with SKINETHIC™ RHE model (GA concentration 1.69%) and in the series on SKINETHIC™ RHE model (GA concentration 2.25%) were 59,6% and 22.2%, respectively. The same molecule had an EC50 value with SKINETHIC™ RHE model of 1.70%. The EC50 in the series with SKINETHIC™ RHE model turned out to be 1.70 % p/v. In addition, the entries for the “R (IL-1α/Viab%) ×100” value with interleukin 1α (IL-1α) (GA concentration 1.27%), in the series on interleukin 1α (IL-1α) (GA concentration 1.69%) and in the series on interleukin 1α (IL-1α) (GA concentration 2.25%) were 10.42, 18.26 and 35.56, respectively. The “user satisfaction, evolution” value with skin is given as “significant increase in user satisfaction”.

The values above are taken from EP4631928A1, “METHOD OF PURIFICATION OF GLYCOLIC ACID, COMPOSITION AND USE THEREOF” (Metabolic Explorer, priority 2024, dated 2025).
